# Legend:
# [1] = target: T1, A-II-receptor (membrane fraction of bovine adrenal cortex) (Bos taurus, UniProt P25104); test: Inhibition of binding of angiotensin-II to angiotensin receptor (radio receptor assay, 125I-A-II); conditions: room temperature, one hour; for inhibition at 1 µM: 10^-6 M; for inhibition at 0.1 µM: 10^-7 M
# T1 construct: prepared from the membrane fraction of bovine adrenal cortex; from tissue; host or cells: bovine adrenal cortex, membrane fraction
# T1 sequence (P25104 1-359): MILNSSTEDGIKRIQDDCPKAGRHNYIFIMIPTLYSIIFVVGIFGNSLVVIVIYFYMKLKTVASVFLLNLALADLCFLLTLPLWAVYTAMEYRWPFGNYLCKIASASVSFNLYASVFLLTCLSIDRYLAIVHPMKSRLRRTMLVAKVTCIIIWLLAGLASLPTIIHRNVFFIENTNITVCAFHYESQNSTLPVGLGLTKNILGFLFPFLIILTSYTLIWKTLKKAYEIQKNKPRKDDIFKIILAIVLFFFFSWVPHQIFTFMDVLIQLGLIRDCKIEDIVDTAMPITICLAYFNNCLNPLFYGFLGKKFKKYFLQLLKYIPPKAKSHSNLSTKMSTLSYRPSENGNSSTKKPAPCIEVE
# Procedure: An experiment of inhibition on the binding of angiotensin-II (A-II) to A-II-receptor was conducted by modifying the method of Douglas et al. [Endocrinology, 102, 685-696 (1978)]. An A-II-receptor was prepared from the membrane fraction of bovine adrenal cortex.
# The compound of the present invention (10^-9 M to 3×10^-5 M) and ^125 I-A-II (1.85 kBq/50 μl) were added to the receptor membrane fraction, and the mixture was incubated at room temperature for one hour. The receptor-bound and free ^125 I-A-II were separated through a filter (Whatman GF/B filter), and the radioactivity of ^125 I-A-II bound to the receptor was measured.
# [2] = test system: A-II-induced pressor action; test: Inhibitory effect on pressor action of A-II (100 ng/kg i.v.) after oral administration; assay type: in vivo, Jcl: SD rats (9 week old, male); conditions: Rattus norvegicus, 30 mg/kg p.o., SD rats, read-out: Pressor Response (30 mg/Kg, p.o.) (% Inhibition)
# Procedure: Jcl: SD rats (9 week old, male) were used. On the day previous to the experiment, these animals were applied with cannulation into the femoral artery and vein under anesthesia with pentobarbital Na. The animals were fasted but allowed free access to drinking water until the experiment was started. Just on the day of conducting the experiment, the artery cannula was connected with a blood-pressure transducer, and the average blood pressure was recorded by means of polygraph. Before administration of the drug, the pressor action due to intravenous administration of A-II (100 ng/kg) as the control was measured. The drugs were orally administered, and then, at each point of the measurement, A-II was administered intravenously, and the pressor action was similarly measured. By comparing the pressor action before and after administration of the drug, the precent inhibition by the drug on A-II-induced pressor action was evaluated.
inhibition at 1 µM [1],inhibition at 0.1 µM [1],SMILES,inhibition in vivo at 30 mg/kg [2]
83%,48%,CCCc1nc2ccc(OCCOC(=O)c3ccccc3)cc2c(=O)n1Cc1ccc(-c2ccccc2-c2nn[nH]n2)cc1 [Working Example 41],≥ 70%
88%,74%,"CCCCc1nc2cccc(CO)c2c(=O)n1Cc1ccc(-c2ccccc2-c2nnn[nH]2)cc1 [Working Example 54, 2-Butyl-5-hydroxymethyl-3-[[2'-(1H-tetrazol-5-yl)biphenyl-4-yl]methyl]-4(3H)-quinazolinone]",≥ 70%
92%,69%,CCCCc1nc2ccc(OCCOC(C)=O)cc2c(=O)n1Cc1ccc(-c2ccccc2-c2nn[nH]n2)cc1 [Working Example 39],≥ 70%
94%,75%,"CCCCc1nc2ccc(OCCO)cc2c(=O)n1Cc1ccc(-c2ccccc2-c2nnn[nH]2)cc1 [Working Example 55, 2-Butyl-6-(2-hydroxyethyloxy)-3-[[2'-(1H-tetrazol-5-yl)biphenyl-4-yl]-methyl]-4(3H)-quinazolinone]",≥ 70%
92%,76%,"CCCc1nc2ccc(OCCO)cc2c(=O)n1Cc1ccc(-c2ccccc2-c2nnn[nH]2)cc1 [Working Example 53, 6-(2-Hydroxyethyloxy)-2-propyl-3-[[2'-(1H-tetrazol-5-yl)biphenyl-4-yl]methyl]-4(3H)-quinazolinone]",≥ 70%
88%,63%,CCCc1nc2ccc(OCC(=O)NCc3ccccc3)cc2c(=O)n1Cc1ccc(-c2ccccc2-c2nn[nH]n2)cc1 [Working Example 49],–
95%,81%,CCCc1nc2ccc(OCC(=O)N3CCOCC3)cc2c(=O)n1Cc1ccc(-c2ccccc2-c2nn[nH]n2)cc1 [Working Example 48],–
95%,73%,CCCCc1nc2cccc(COC)c2c(=O)n1Cc1ccc(-c2ccccc2-c2nn[nH]n2)cc1 [Working Example 50],–

# Second part, the compound before the results:
SMILES,inhibition at 1 µM [1],inhibition at 0.1 µM [1],inhibition in vivo at 30 mg/kg [2]
"CCCCc1cc(=O)c(C(=O)OCC)cn1Cc1ccc(-c2ccccc2C(=O)O)cc1 [Working Example 1, Ethyl 6-n-butyl-1-[(2'-carboxybiphenyl-4-yl)methyl]-4-oxo-1,4-dihydronicotinate]",67%,24%,–
"CCCCc1cc(=O)c(C(=O)OCC)cn1Cc1ccc(-c2ccccc2-c2nnn[nH]2)cc1 [Working Example 2, Ethyl 6-n-butyl-4-oxo-1-[[2'-(1H-tetrazol-5-yl)biphenyl-4-yl]methyl]-1,4-dihydronicotinate]",67%,25%,–
CCCCc1nc2cccc(C)c2c(=O)n1Cc1ccc(-c2ccccc2-c2nn[nH]n2)cc1 [Working Example 26],74%,36%,≥ 70%
CCCCc1nc2cc(Cl)ccc2c(=O)n1Cc1ccc(-c2ccccc2-c2nn[nH]n2)cc1 [Working Example 25],58%,18%,–
CCCc1cc(=O)c(C(=O)OCC)cn1Cc1ccc(-c2ccccc2-c2nn[nH]n2)cc1 [Working Example 4],72%,31%,–
"CCCCc1nc(COC)cc(=O)n1Cc1ccc(-c2ccccc2-c2nnn[nH]2)cc1 [Working Example 8, 2-n-Butyl-3-[[2'-(1H-tetrazol-5-yl)biphenyl-4-yl]methyl]-6-methoxymethyl-4(3H)-pyrimidone]",73%,29%,–
CCCCc1nc2ccc(OCC(=O)OC)cc2c(=O)n1Cc1ccc(-c2ccccc2-c2nn[nH]n2)cc1 [Working Example 38],89%,59%,≥ 70%
"CCCCc1ncc(C(=O)OCC)c(=O)n1Cc1ccc(-c2ccccc2-c2nnn[nH]2)cc1 [Working Example 10, Ethyl 2-n-butyl-4-oxo-3-[[2'-(1H-tetrazol-5-yl)biphenyl-4-yl]methyl]-3,4-dihydropyrimidine-5-carboxylate]",75%,32%,–
CCCCc1nc2cccc(COC(C)=O)c2c(=O)n1Cc1ccc(-c2ccccc2-c2nn[nH]n2)cc1 [Working Example 32],93%,72%,≥ 70%
"CCCCc1nc(CC(=O)OC)cc(=O)n1Cc1ccc(-c2ccccc2-c2nnn[nH]2)cc1 [Working Example 16, 2-n-Butyl-6-methoxycarbonylmethyl-3-[[2'-(1H-tetrazol-5-yl)biphenyl-4-yl]methyl]-4(3H)-pyrimidone]",68%,31%,–
CCCCCc1cc(=O)c(C(=O)OCC)cn1Cc1ccc(-c2ccccc2-c2nn[nH]n2)cc1 [Working Example 3],71%,28%,–
CCCCc1nc2ccc(OC)cc2c(=O)n1Cc1ccc(-c2ccccc2-c2nn[nH]n2)cc1 [Working Example 37],97%,77%,≥ 70%
"CCCCc1nc(=O)c(C(=O)OCC)cn1Cc1ccc(-c2ccccc2-c2nnn[nH]2)cc1 [Working Example 11, Ethyl 2-n-butyl-4-oxo-1-[[2'-(1H-tetrazol-5-yl)biphenyl-4-yl]methyl]-1,4-dihydropyrimidine-5-carboxylate]",70%,29%,–
"CCCCc1ncc([N+](=O)[O-])c(=O)n1Cc1ccc(-c2ccccc2-c2nn[nH]n2)cc1 [Working Example 13, 2-n-Butyl-5-nitro-3-[[2'-(1H-tetrazol-5-yl)biphenyl-4-yl-]methyl]-4(3H)-pyrimidone]",73%,30%,–
CCCCc1nc2cc([N+](=O)[O-])ccc2c(=O)n1Cc1ccc(-c2ccccc2-c2nn[nH]n2)cc1 [Working Example 24],41%,3%,–
"CCCCc1nc2ccccc2c(=O)n1Cc1ccc(-c2ccccc2-c2nnn[nH]2)cc1 [Working Example 23, 2-n-Butyl-3-[[2'-(1H-tetrazol-5-yl)biphenyl-4-yl]methyl]-4(3H)-quinazolinon]",85%,46%,≥ 70%
CCCCC(=O)Oc1ccc2nc(CCCC)n(Cc3ccc(-c4ccccc4-c4nn[nH]n4)cc3)c(=O)c2c1 [Working Example 29],92%,66%,≥ 70%
